These results are taken from BindingDB's records for doi:10.1016/j.bmcl.2007.04.053 (Merck Research Laboratories, 2007).

The assay can be described thus: Inhibition of chemotaxis in human MCP1 monocytes.
As a reminder, the IC50 is the midpoint of a concentration-inhibition curve. `CC(C)C[C@]1(C(=O)NCc2cc(F)cc(C(F)(F)F)c2)CC[C@@H](N2CC[C@]3(C=Cc4ccccc43)[C@@H](C)C2)C1` [(1R,3R)-N-{[3-fluoro-5-(trifluoromethyl)phenyl]methyl}-1-(2-methylpropyl)-3-[(1S,5'R)-5'-methylspiro[indene-1,4'-piperidine]-1'-yl]cyclopentane-1-carboxamide] displayed an IC50 of 320 pM.

In turn, `C[C@H]1CN([C@@H]2CC[C@@](C(=O)NCc3cc(F)cc(C(F)(F)F)c3)(C3CC3)C2)CC[C@]12C=Cc1ccccc12` [(1S,3R)-1-cyclopropyl-N-{[3-fluoro-5-(trifluoromethyl)phenyl]methyl}-3-[(1S,5'R)-5'-methylspiro[indene-1,4'-piperidine]-1'-yl]cyclopentane-1-carboxamide] came in with an IC50 of 230 pM.

Consider `CC(C)[C@]1(C(=O)NCc2cc(F)cc(C(F)(F)F)c2)CC[C@@H](N2CC[C@]3(C=Cc4ccccc43)[C@@H](C)C2)C1` [(1S,3R)-N-{[3-fluoro-5-(trifluoromethyl)phenyl]methyl}-3-[(1S,5'R)-5'-methylspiro[indene-1,4'-piperidine]-1'-yl]-1-(propan-2-yl)cyclopentane-1-carboxamide], for which the IC50 came to 150 pM.
